PMC13233820, “Recruitment of Mre11 to recombination sites during meiosis” (Nature Communications, 2026)

Legend:
MRX condensates = format: biochemical, Saccharomyces cerevisiae; settings: 5% 1,6-hexanediol, ten-minute treatment
Protocol: Experiments were performed without PEG. b, d Effect of DNase I, in the absence of PEG, on (b) Mre11 (n = 9 (no treatment) and 11 (DNase I)) and (d) MRX (n = 9 (no treatment) and 11 (DNase I)) condensates. Condensates were pre-assembled for 20 min with 5.7 nM pUC19 prior to challenge. Quantification represents total foci intensity (green) in a field of view and total number of foci per 1000 µm^2 (magenta). Foci intensity is normalized to the mean intensity of samples with DNA for (a, c) and untreated samples for (b, d). Error bars represent mean ± SD from the indicated (n) fields of view. e, f Effect of the presence of 5% PEG-3350 on (e) Mre11 (n = 12) and (f) MRX (n = 11) condensate formation. Quantification represents total foci intensity (green) in a field of view (normalized to the mean of + PEG images) and total number of foci per 1000 µm^2 (magenta). Error bars represent mean ± SD from the indicated (n) fields of view. g–j Effect of challenge with 5% 1,6-hexanediol and 0.5 M NaCl on (g, h) Mre11 and (i, j) MRX condensates. Condensates were assembled for 20 min prior to challenge and incubated for 15 min and 10 min, respectively, after challenge. […]
(§1) Proteins were diluted to a 10 × stock of their appropriate working concentrations in their respective storage buffers. […] Images were analyzed with ImageJ using a custom-made script. […] Data were analyzed using Graphpad Prism 10.4.0.

meiotic Mre11^myc foci = experiment: Immunofluorescence of meiotic Mre11myc foci, yeast nuclear spreads; format: cell-based, Saccharomyces cerevisiae; settings: brief exposure to 1,6-hexanediol, prophase I spreads
Protocol: Following standard protocols, strains were patched on YPG plates, mated and streaked on YPD plates, and selected diploid colonies grown in liquid YPD at 30 °C, 250 rpm, overnight. For meiotic synchronization, diploid cultures grown overnight in YPD were transferred to YPA (1% yeast extract, 2% peptone, 1% potassium acetate) at OD600 0.2 and grown for 12–14 h at 30 °C, 250 rpm. Once the cultures reached OD600 between 1.2–1.6, cells were washed once with prewarmed sterile water and immediately transferred to sporulation medium supplemented with amino acids (320 µL amino acid complementation media for 100 mL of sporulation media (SPM)) and were kept shaking at 30 °C, 250 rpm during the entire meiotic time-course. For MMS and CPT (Sigma) sensitivity assays, serial dilutions of overnight cultures were spotted on freshly prepared YPD-MMS or YPD-CPT plates containing the indicated percentage of MMS or CPT, respectively. […]
(§2) Slides were blocked with 90% FBS, 1 × PBS for 1 h at room temperature in a humid chamber and then incubated with primary antibody (mouse mAb anti-myc, 1:200 (2276S, Cell Signaling Technology), rabbit anti-phospho H2A-S129, 1:200 (ab15083, abcam)) diluted in 3% BSA, 1 × PBS in a humid chamber for 2 h at 37 °C or overnight at 4 °C. […] Images were captured on a Zeiss Axio Observer with a 100 ×/1.4 NA oil immersion objective and were analyzed in ImageJ.

Mre11 condensates = format: biochemical, Saccharomyces cerevisiae; settings: 5% 1,6-hexanediol, ten-minute treatment
Protocol: Experiments were performed without PEG. b, d Effect of DNase I, in the absence of PEG, on (b) Mre11 (n = 9 (no treatment) and 11 (DNase I)) and (d) MRX (n = 9 (no treatment) and 11 (DNase I)) condensates. Condensates were pre-assembled for 20 min with 5.7 nM pUC19 prior to challenge. Quantification represents total foci intensity (green) in a field of view and total number of foci per 1000 µm^2 (magenta). Foci intensity is normalized to the mean intensity of samples with DNA for (a, c) and untreated samples for (b, d). Error bars represent mean ± SD from the indicated (n) fields of view. e, f Effect of the presence of 5% PEG-3350 on (e) Mre11 (n = 12) and (f) MRX (n = 11) condensate formation. Quantification represents total foci intensity (green) in a field of view (normalized to the mean of + PEG images) and total number of foci per 1000 µm^2 (magenta). Error bars represent mean ± SD from the indicated (n) fields of view. g–j Effect of challenge with 5% 1,6-hexanediol and 0.5 M NaCl on (g, h) Mre11 and (i, j) MRX condensates. […] In the control reaction, an equivalent volume (1/20) of water was added instead of hexanediol. […]
as §1

[1] = tested on: MMS-induced Mre11^myc foci in vegetatively growing yeast; experiment: Immunofluorescence of MMS-induced Mre11myc foci, vegetative yeast nuclear spreads; format: cell-based, Saccharomyces cerevisiae
Protocol: Following standard protocols, strains were patched on YPG plates, mated and streaked on YPD plates, and selected diploid colonies grown in liquid YPD at 30 °C, 250 rpm, overnight. For meiotic synchronization, diploid cultures grown overnight in YPD were transferred to YPA (1% yeast extract, 2% peptone, 1% potassium acetate) at OD600 0.2 and grown for 12–14 h at 30 °C, 250 rpm. Once the cultures reached OD600 between 1.2–1.6, cells were washed once with prewarmed sterile water and immediately transferred to sporulation medium supplemented with amino acids (320 µL amino acid complementation media for 100 mL of sporulation media (SPM)) and were kept shaking at 30 °C, 250 rpm during the entire meiotic time-course. For MMS and CPT (Sigma) sensitivity assays, serial dilutions of overnight cultures were spotted on freshly prepared YPD-MMS or YPD-CPT plates containing the indicated percentage of MMS or CPT, respectively. Plates were grown for two days at 30 °C. For immunofluorescence of vegetatively growing cells, overnight cultures were refreshed by diluting to OD600 0.2 and grown for 3-4 hours to reach OD600 1.2–1.4 before subjecting to MMS or MMS followed by 5% 1,6-hexanediol treatment. For 5% 1,6-hexanediol treatment, cells were first converted to spheroplasts and then treated with 5% 1,6-hexanediol for 4-5 min. Spheroplasts were then immediately washed, lysed, and fixed using the protocol described below.
Meiotic cultures were harvested 4 h after transfer to SPM, washed with sterile cold water, and resuspended in 1 M sorbitol, 1 × PBS (pH 7), 10 mM DTT, 0.5 mg/ml zymolyase 20 T, and incubated for 30 mins at 30 °C with gentle shaking. […]
as §2

Mer2 condensates = experiment: Colocalization of fluorescently-labeled Mer2 and Mre11 condensates; format: binding, Saccharomyces cerevisiae; settings: 800 nM mScarlet-Mre11-C49 with 200 nM eGFP-Mer2, 30 min
Protocol: Fig. 4 Mer2 recruits Mre11 during meiosis. a Effect of 1,6-hexanediol treatment on meiotic Mre11^myc foci visualized by immunofluorescence analysis of yeast nuclear spreads 4 hours after transfer to SPM. […] At least 22 tetrads were dissected for each strain (n ≥ 88 spores). e Quantification of sub-population of cells showing discrete Mre11 foci and aggregated Mre11 foci in indicated strains. Images used for analysis were from the same experiments in (b) and (d). f Colocalization of fluorescently-labeled Mer2 with wild-type or truncated Mre11. […] The number of images analyzed for each sample were WT (n = 11), Mre11^Δ10-270 (n = 13), Mre11^Δ290-472 (n = 15), Mre11^ΔIDR (n = 10), Mre11^ΔC49 (n = 13). Error bars represent mean ± SD from the indicated (n) fields of view. p-values compared to Mre11-WT are: Mre11^Δ10-270 (0.006), Mre11^Δ290-472 (0.0003), Mre11^ΔIDR (<0.0001), Mre11^ΔC49 (<0.0001). g Colocalization of fluorescently-labeled Mre11-C49 and Mer2. Condensates were assembled by mixing 800 nM of ^mScarletMre11-C49 and 200 nM of ^eGFPMer2 for 30 min prior to imaging. […]
Proteins were diluted to a 10 × stock of their appropriate working concentrations in their respective storage buffers. […] Images were analyzed with ImageJ using a custom-made script. […] Masked foci were counted, and the intensity inside the focus mask was integrated. […] Data were analyzed using Graphpad Prism 10.4.0.

Mer2 coiled-coil = experiment: ITC Mre11-C49 / Mer2 coiled-coil; format: binding, Saccharomyces cerevisiae; settings: Mre11-C49 titrated into Mer2 coiled-coil; peer review file
Mer2 = experiment: Yeast two-hybrid; format: binding, Saccharomyces cerevisiae; settings: SC-Leu-Ura-His + 25 mM 3-AT
Protocol: Bait and prey plasmids were co-transformed into yWL365 using the standard ‘LiAc’-based transformation and plated on SC-Leu-Ura selective media. At least four independent transformants were tested for Mer2-Mre11 interaction by spotting a dilution series on SC-Leu- Ura-His + 25 mM 3-AT (3-amino-1,2,4-triazole) and growing for 4-5 days at 30 °C.

HisSUMO-Mer2 (wild type) = experiment: Co-expression pull-down assay (NiNTA, anti-MBP immunoblot); format: binding, Saccharomyces cerevisiae; settings: co-expressed in E. coli
Protocol: Wild-type and mutant MBP-tagged Mre11-C49 and HisSUMO-tagged Mer2 were co-expressed in 50 mL of E. coli BL21 cultures and purified by affinity chromatography on Ni-NTA resin following a procedure similar to that described above. Briefly, cells were lysed by sonication and centrifuged at maximum speed for 30 mins at 4 °C on a table-top centrifuge. A small fraction of the supernatant was collected as ‘Input’ and the remainder was incubated with 120 µL Ni-NTA resin, pre-equilibrated with wash buffer (25 mM HEPES pH 7.5, 20 mM imidazole, 0.1 mM DTT, 0.1 mM PMSF, 10% glycerol), for 1 hour on a rotating wheel at 4 °C. The resin was washed twice with 2 ml in batch and five times with 2 ml on column before eluting with 250 µL of 500 mM imidazole in wash buffer. Input and elution fractions were separated by SDS-PAGE followed by immunoblotting with primary murine anti-MBP monoclonal antibody at 1:10,000 dilution (E8032S, NEB) and secondary goat anti-mouse IgG-HRP conjugated at 1:10,000 dilution (AP308P, Chemicon).

| Molecule | Effect on MRX foci intensity (in words) (MRX condensates) | Effect on meiotic Mre11 foci (in words) (meiotic Mre11^myc foci) | Effect on Mre11 foci intensity (in words) (Mre11 condensates) | Effect on MMS-induced Mre11 foci (in words) ([1]; 5% 1,6-hexanediol, 4-5 min) | Percentage of aggregates ([1]; MMS + 5% 1,6-hexanediol 4-5 min) | Localization around Mer2 condensates (in words) (Mer2 condensates) | ITC result (Mer2 coiled-coil) | Yeast two-hybrid interaction with Mer2 (in words) (Mer2) | Interaction with Mer2 in pulldown (in words) (HisSUMO-Mer2 (wild type)) |
| --- | --- | --- | --- | --- | --- | --- | --- | --- | --- |
| OCCCCCCO [1,6-hexanediol] | strong reduction in foci intensity | disassembles these foci | strong reduction in foci intensity | readily dissolved MMS-induced foci | 100 |  |  |  |  |
| SYGLLNGRKTKTKTRSAASTKTASRRGKGRASRTPKTDILGSLLAKKRK [Mre11-C49, Mre11 C-terminal residues 644–692] |  |  |  |  |  | forms a halo-like structure around Mer2 condensates | inconclusive | not sufficient for Mer2 binding | directly binds Mer2 |
